Reference: patent US20210038688A1, “ICAM-1 MARKER AND APPLICATION THEREOF” (Shanghai Institute of Nutrition and Health, Chinese Academy …, priority 2018, published 2021)

Tests used:
[1] = test system: wild-type adipose stem cells; experiment: in vitro adipogenic differentiation of adipose stem cells derived from WT mice (oil red staining, Western blot, Real time PCR); type: cell-based
Procedure: (§1) FIG. 6E and FIG. 6F respectively show the mRNA levels of Pparg (FIG. 6E) and Fabp4 (FIG. 6F) after adipogenic differentiation of WT and ICAM-1^−/− mice-derived adipose stem cells under […] or DMSO treatment, using Real time PCR.
(§2) Cultivation of adipose stromal cells The sorted CD31^−CD45^−Sca-1^+PDGFR-α^+ adipose stromal cells as well as CD31^−CD45^−Sca-[…]-1^− and other components were cultured in DMEM low-sugar medium supplemented with 10% FBS alone or in combination. In some experiments, adherent adipose mononuclear cells were directly cultured in DMEM low-sugar medium supplemented with 10% FBS, and immune cells and vascular endothelial cells were removed during the medium exchange and passage steps to obtain simple adipose stromal cells.
(§3) For preparing differentiation medium, 0.5 mM 3-isobutyl-1-methylxanthine (IBMX), 50 μM indomethacin, 10 μg/ml insulin and 0.5 μM dexamethasone were added to 10% FBS of DMEM high glucose medium. When the adipose stromal cells grew to 100% confluence, the differentiation medium was changed and the medium was changed every two days, and it was taken about 5 days until differentiation was completed.
(§4) Rho and ROCK can negatively regulate adipogenic differentiation in a cytoskeleton-dependent or insulin signal-dependent manner, and our RNA-seq data also supports the role of Rho GTPase in adipose differentiation. In order to test whether Rho and ROCK are involved in the inhibitory effect of ICAM-1 on adipogenic differentiation of adipose stem cells, we used ROCK inhibitor Y-27632 to treat adipose stem cells respectively. […] Therefore, ICAM-1 inhibits the adipogenic differentiation of adipose stem cells through the Rho-ROCK pathway.
(§5) In order to verify whether Rho GTPase activity can reverse the excessive adipogenic differentiation caused by ICAM-1 deletion, we used the Rho agonist Rho activator II (RA2), which can constitutively activate RhoGTPase. […] It is important that the difference in the expression of adipogenic differentiation genes between wild-type and ICAM-1^−/− cells is eliminated by Rho

[2] = test system: ICAM-1−/− adipose stem cells; experiment: in vitro adipogenic differentiation of adipose stem cells derived from ICAM-1−/− mice (oil red staining, Western blot, Real time PCR); type: cell-based
Procedure: as §1, §2, §3, §4, §5

ICAM-1−/− mice = experiment: local RA2 injection into right inguinal fat pad of ICAM-1−/− mice with high-fat diet induced obesity; type: in vivo; conditions: RA2 locally into right inguinal fat pad, 10 weeks
Procedure: (§6) FIG. 6L-6N respectively show the visual observation result (FIG. 6L), adipose tissue observation result (FIG. 6M) and statistical analysis of changes in subcutaneous adipose tissue weight (6N) in the right subcutaneous adipose tissue of WT mice and ICAM-1^−/− mice that were given a high-fat diet induced obesity is injected with RA2 (every 2 days, […]).
(§7) This asymmetry is not observed in RA2-treated WT mice and PBS-treated mice (FIG. 6L).

WT mice = experiment: local RA2 injection into right inguinal fat pad of WT mice with high-fat diet induced obesity; type: in vivo; conditions: RA2 locally into right inguinal fat pad, 10 weeks
Procedure: as §6, §7

human adipose stem cells = experiment: adipogenic differentiation induction of human primary adipose stromal cells (ICAM-1 siRNA knockdown, RA2); type: cell-based; conditions: RA2 treatment during differentiation; FIG. 7H-J
Procedure: FIGS. 7F-7G respectively show the adipogenic differentiation-related gene expression and Rho GTP activity of adipose stem cells during adipogenic differentiation with the expression of ICAM-1 interfered.
FIGS. 7H-7J respectively show the expressions of adipogenic differentiation-related genes (PPARG, CEBPA, FABP4) in adipose stem cells observed with RA2 activated Rho after interfering with ICAM-1 expression.
as §3
First, the expression content of ICAM-1 in human adipose tissue was analyzed. Currently, there is no recognized characteristic molecule of human preadipocytes. […] These ICAM-1^+ cells, like adipose tissue in mice, are mainly located around blood vessels (FIG. 7B). To test the regulatory effect of ICAM-1 on human adipose stem cells, we isolated human primary adipose stromal cells for adipogenic differentiation induction. […]

Compound	adipogenic differentiation ability (oil red staining) ([1]; RA2 added during in vitro differentiation, wild-type cells, FIG. 6G)	adipogenic differentiation genes Pparg, Cebpa, Fabp4, Plin1 (mRNA, Real time PCR) ([1]; Rho GTPase activation by RA2, wild-type cells, FIG. 6H-K)	adipogenic differentiation ability (oil red staining) ([2]; RA2 added during in vitro differentiation, ICAM-1−/− cells, FIG. 6G)	difference in the expression of adipogenic differentiation genes between wild-type and ICAM-1−/− cells ([2]; Rho GTPase activation by RA2, FIG. 6H-K)	adipogenic differentiation genes Pparg, Cebpa, Fabp4, Plin1 (mRNA, Real time PCR) ([2]; Rho GTPase activation by RA2, ICAM-1−/− precursor cells, FIG. 6H-K)	excessive adipogenic differentiation (inguinal fat pads, injected right vs left side) (ICAM-1−/− mice; FIG. 6L)	fat weight (subcutaneous adipose tissue) (ICAM-1−/− mice; every 2 days, FIG. 6M-N)	asymmetry of inguinal fat pads on both sides (WT mice; FIG. 6L)	fat weight (subcutaneous adipose tissue) (WT mice; every 2 days, FIG. 6M-N)	enhancement of adipogenic differentiation of ICAM-1 knock-down cells (PPARG, CEBPA, FABP4 expression) (human adipose stem cells)	adipogenic differentiation (oil red staining) ([1]; 10 μM Y-27632 compared with DMSO-treated group, wild-type cells, FIG. 6C)	expression level of Perilipin A protein (Western blot) ([1]; Y-27632 vs DMSO, wild-type cells after adipogenic differentiation)	expression of adipogenic differentiation-related proteins and genes (Perilipin A, Pparg, Fabp4) ([1]; inhibiting ROCK (Y-27632 vs DMSO), wild-type cells, FIG. 6D-F)	adipogenic differentiation (oil red staining) ([2]; 10 μM Y-27632 compared with DMSO-treated group, ICAM-1−/− cells, FIG. 6C)	expression level of Perilipin A protein (Western blot) ([2]; Y-27632 vs DMSO, ICAM-1−/− cells after adipogenic differentiation)	expression of adipogenic differentiation-related proteins and genes (Perilipin A, Pparg, Fabp4) ([2]; inhibiting ROCK (Y-27632 vs DMSO), ICAM-1−/− cells, FIG. 6D-F)
Rho activator II [RA2]	not obvious	only Pparg and Fabp4 are significantly changed	significantly inhibited	eliminated	extensive reduction	weakened	significantly reduce	not observed	not	eliminated						
C[C@@H](N)[C@H]1CC[C@H](C(=O)Nc2ccncc2)CC1 [Y-27632]											significantly accelerate	significantly increase	significantly increase	no obvious effect	little effect	not obvious
